The target of test [1] is T1, Caspase-4 (Homo sapiens) (UniProt P49662).
T1 sequence (whole entry): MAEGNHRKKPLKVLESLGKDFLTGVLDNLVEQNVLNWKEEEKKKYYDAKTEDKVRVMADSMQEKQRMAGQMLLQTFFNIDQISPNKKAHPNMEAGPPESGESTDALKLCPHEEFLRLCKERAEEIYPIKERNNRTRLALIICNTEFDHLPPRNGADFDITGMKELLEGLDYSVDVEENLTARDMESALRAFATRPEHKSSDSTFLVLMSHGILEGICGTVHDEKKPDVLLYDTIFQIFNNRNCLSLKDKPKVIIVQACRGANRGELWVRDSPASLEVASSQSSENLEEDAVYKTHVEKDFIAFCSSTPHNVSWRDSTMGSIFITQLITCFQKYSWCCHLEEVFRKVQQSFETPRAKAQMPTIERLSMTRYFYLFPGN
Description: Effect on recombinant caspase 4 activity at 210 nM relative to control.

For test [2], the target named is T2, Caspase-6 (Homo sapiens) (UniProt P55212).
T2 sequence (whole entry): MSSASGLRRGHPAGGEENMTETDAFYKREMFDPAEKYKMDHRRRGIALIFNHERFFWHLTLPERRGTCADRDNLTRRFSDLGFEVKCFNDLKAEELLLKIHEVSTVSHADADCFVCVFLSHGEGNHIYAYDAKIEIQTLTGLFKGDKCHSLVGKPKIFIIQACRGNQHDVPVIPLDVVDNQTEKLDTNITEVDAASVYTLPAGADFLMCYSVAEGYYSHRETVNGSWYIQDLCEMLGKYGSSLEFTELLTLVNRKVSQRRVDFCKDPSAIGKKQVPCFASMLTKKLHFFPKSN
In words: Effect on recombinant caspase 6 activity at 210 nM relative to control.

The target of test [3] is T3, Caspase-3 (Homo sapiens) (UniProt P42574).
T3 sequence (whole entry): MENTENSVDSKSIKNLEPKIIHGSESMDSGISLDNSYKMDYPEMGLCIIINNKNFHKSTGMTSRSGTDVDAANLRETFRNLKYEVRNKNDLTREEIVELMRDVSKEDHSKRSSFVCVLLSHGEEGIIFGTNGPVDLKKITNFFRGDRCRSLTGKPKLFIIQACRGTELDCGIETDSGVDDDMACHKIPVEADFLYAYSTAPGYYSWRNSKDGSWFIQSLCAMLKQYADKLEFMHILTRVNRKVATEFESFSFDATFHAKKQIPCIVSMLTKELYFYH
In words: […] caspase 3 activity at 210 nM relative to control. On the set-up: scale not given: the % may be the effect or the level left.

SMILES strings stand for the structures.

The results in this text go back to ChEMBL document CHEMBL1149270, “Design and synthesis of a potent and selective peptidomimetic inhibitor of caspase-3” (J Med Chem, 2004).

Regarding `CC(=O)N[C@@H](CC(=O)O)C(=O)NC1N=C(c2ccccc2)c2ccccc2N(CC(=O)N[C@H]2CC(=O)OC2O)C1=O` (stereo partly drawn), the results for the Activity in test [1], in test [2] and in test [3] were 95%, 58% and 9%, respectively.
